The source of these data is ChEMBL document CHEMBL5291721, “A preclinical secondary pharmacology resource illuminates target-adverse drug reaction associations of marketed drugs” (Nat Commun, 2023).

The target of assay [1] is T1, Androgen receptor (Rattus norvegicus, UniProt P15207).
T1 sequence (P15207 whole entry): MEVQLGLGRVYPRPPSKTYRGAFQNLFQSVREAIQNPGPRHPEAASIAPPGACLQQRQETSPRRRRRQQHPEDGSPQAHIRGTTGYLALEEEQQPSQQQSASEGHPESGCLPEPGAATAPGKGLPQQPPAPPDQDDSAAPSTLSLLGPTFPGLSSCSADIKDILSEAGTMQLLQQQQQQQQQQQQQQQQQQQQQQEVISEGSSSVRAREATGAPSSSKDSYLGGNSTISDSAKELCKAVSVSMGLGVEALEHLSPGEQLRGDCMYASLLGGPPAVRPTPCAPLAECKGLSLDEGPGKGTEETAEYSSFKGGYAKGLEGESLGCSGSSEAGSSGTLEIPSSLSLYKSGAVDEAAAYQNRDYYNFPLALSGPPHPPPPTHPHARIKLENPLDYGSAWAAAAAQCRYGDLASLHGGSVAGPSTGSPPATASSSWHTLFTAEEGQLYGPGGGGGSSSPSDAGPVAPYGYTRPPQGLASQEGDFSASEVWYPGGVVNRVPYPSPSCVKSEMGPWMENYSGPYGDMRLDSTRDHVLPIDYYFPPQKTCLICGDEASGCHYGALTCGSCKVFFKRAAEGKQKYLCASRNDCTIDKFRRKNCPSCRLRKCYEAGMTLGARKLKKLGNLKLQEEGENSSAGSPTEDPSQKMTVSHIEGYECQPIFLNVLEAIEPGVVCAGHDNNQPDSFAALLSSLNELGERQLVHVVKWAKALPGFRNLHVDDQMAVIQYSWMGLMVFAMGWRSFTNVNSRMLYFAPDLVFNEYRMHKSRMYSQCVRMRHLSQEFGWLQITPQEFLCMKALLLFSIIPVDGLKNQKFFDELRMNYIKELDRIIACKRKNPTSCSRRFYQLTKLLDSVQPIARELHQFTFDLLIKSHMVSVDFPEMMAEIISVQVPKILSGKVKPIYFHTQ
The assay is classed as functional.

Assay [2] addresses Receptor tyrosine-protein kinase erbB-2 (Homo sapiens, UniProt P04626). It is filed as functional.
The target of another assay is T2, Thromboxane A2 receptor (Homo sapiens, UniProt P21731).
T2 sequence (P21731 whole entry): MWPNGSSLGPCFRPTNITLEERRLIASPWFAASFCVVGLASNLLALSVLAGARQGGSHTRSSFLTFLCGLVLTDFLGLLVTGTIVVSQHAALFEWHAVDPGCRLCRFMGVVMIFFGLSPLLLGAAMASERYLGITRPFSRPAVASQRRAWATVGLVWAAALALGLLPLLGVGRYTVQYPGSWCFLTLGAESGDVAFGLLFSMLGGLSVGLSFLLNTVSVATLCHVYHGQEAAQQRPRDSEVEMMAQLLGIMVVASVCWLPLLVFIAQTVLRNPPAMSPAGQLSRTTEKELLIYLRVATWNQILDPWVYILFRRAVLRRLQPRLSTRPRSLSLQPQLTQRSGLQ
It is filed as functional, cell-based.

For assay [3], the target named is Rod cGMP-specific 3',5'-cyclic phosphodiesterase subunit alpha (Homo sapiens, UniProt P16499). The assay is classed as functional.
Rod cGMP-specific 3',5'-cyclic phosphodiesterase subunit alpha, sequence (P16499 whole entry): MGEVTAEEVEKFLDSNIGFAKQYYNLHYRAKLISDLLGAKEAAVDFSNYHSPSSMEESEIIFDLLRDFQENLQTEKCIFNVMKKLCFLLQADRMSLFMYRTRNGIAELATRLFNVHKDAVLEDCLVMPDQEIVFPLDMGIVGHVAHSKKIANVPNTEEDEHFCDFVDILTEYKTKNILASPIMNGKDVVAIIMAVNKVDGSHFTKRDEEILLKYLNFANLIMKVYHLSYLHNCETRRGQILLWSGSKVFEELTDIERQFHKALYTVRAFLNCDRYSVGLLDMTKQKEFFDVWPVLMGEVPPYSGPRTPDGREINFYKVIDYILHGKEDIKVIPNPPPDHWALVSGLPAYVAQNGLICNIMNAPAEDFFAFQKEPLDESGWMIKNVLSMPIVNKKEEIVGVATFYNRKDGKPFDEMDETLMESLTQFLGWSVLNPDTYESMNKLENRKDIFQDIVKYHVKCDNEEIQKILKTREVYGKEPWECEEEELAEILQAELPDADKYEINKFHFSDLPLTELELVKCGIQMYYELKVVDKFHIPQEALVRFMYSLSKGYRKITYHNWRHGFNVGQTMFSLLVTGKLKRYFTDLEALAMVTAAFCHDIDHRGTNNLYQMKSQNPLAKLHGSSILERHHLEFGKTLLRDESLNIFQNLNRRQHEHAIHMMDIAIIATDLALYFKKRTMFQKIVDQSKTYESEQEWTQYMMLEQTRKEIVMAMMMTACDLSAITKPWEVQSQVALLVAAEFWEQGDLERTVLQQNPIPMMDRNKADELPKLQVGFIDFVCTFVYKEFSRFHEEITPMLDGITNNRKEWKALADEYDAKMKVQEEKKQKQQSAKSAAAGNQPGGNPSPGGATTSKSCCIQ
Assay [4] addresses T3, Androgen receptor (Homo sapiens, UniProt P10275).
T3 sequence (P10275 whole entry): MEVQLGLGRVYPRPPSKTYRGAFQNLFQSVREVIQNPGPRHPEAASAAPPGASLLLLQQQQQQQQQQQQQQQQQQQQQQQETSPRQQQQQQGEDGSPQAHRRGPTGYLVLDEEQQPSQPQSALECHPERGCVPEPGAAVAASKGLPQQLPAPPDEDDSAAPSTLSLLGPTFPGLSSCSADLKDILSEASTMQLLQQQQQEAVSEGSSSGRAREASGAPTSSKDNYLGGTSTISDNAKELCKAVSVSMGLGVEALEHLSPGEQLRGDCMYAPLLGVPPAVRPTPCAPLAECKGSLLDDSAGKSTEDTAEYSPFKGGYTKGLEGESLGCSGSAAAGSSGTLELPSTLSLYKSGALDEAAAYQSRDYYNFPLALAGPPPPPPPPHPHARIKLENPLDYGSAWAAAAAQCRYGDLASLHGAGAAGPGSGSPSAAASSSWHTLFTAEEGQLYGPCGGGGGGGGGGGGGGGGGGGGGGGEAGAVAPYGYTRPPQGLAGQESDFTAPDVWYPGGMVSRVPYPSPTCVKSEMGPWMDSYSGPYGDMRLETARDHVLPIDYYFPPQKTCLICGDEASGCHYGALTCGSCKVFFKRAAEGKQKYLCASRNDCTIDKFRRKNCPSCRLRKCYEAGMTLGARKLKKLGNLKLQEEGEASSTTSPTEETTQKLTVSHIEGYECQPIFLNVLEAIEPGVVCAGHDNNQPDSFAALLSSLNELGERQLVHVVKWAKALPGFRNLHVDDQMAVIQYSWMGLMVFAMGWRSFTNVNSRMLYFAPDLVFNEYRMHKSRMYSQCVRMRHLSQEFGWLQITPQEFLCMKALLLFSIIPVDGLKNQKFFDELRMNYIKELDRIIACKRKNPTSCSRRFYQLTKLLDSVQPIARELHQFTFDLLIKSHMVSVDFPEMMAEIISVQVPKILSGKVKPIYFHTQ

In assay [5] the target is T4, Alpha-2A adrenergic receptor (Homo sapiens, UniProt P08913).
T4 sequence (P08913 whole entry): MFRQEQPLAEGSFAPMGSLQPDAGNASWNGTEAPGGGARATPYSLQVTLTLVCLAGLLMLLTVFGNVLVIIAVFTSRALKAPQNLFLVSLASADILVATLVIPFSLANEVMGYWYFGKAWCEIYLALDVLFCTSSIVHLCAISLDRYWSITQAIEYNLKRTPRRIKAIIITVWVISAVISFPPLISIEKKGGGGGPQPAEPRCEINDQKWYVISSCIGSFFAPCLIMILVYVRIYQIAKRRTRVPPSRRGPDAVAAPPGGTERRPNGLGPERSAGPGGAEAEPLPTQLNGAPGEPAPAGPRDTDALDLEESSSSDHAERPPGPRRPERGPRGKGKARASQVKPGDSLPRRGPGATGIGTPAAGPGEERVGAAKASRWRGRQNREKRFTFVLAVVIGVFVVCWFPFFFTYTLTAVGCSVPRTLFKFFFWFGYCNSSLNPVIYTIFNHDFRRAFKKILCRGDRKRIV

The target in a further assay is D(1A) dopamine receptor (Homo sapiens, UniProt P21728).
D(1A) dopamine receptor, sequence (P21728 whole entry): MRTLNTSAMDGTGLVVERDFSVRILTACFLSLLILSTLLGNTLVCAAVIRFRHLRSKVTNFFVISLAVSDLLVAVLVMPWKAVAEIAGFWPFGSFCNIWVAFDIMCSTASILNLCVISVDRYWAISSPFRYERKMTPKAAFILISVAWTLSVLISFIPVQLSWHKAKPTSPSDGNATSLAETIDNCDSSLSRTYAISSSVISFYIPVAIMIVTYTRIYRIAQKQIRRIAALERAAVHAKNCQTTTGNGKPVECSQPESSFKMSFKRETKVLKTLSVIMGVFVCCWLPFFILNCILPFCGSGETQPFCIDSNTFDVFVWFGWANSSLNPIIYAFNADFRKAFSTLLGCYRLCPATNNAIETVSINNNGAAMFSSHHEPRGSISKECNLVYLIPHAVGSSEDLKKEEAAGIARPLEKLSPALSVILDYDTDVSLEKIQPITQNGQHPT

Structures are written as SMILES.

Broadly, the AC50 is the midpoint of the concentration-response curve, whichever way the signal moves. Low readings indicate greater potency, high ones weaker potency.
Further: assay procedure not described here.

Receptor tyrosine-protein kinase erbB-2, sequence (P04626 whole entry): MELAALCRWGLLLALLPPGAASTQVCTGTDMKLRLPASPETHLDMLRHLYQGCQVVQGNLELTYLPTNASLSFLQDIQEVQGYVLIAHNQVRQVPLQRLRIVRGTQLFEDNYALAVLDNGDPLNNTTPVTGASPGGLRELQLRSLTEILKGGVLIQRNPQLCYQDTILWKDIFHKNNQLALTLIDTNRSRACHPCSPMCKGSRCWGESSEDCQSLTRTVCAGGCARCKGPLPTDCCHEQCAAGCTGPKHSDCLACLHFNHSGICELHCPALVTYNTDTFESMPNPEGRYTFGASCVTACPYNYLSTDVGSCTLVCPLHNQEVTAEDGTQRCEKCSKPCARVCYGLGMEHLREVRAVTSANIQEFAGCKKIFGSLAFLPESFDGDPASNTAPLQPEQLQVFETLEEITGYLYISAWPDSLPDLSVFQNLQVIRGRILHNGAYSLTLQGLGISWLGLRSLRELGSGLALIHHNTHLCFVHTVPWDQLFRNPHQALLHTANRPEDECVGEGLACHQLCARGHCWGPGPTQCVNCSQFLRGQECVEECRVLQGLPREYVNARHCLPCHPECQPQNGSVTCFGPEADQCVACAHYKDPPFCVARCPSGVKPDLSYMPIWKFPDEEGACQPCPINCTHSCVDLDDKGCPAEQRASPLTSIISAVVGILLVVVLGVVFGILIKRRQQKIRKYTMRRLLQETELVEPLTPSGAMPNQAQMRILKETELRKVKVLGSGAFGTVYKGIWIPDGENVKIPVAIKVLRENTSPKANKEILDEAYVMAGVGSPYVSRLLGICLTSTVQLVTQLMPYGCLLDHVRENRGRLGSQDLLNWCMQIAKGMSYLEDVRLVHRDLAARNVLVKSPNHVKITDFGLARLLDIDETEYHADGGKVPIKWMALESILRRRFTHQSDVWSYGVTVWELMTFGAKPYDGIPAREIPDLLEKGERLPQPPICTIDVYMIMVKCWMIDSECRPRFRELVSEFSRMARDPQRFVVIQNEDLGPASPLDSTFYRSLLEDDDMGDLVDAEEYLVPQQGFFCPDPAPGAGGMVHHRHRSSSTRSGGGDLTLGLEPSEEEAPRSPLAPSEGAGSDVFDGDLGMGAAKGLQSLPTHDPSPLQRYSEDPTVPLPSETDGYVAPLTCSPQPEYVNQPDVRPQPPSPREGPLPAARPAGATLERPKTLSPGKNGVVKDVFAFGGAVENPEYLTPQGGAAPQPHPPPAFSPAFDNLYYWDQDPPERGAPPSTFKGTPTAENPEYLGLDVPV

On to `CO/N=C(\C(=O)N[C@@H]1C(=O)N2C(C(=O)[O-])=C(C[N+]3(C)CCCC3)CS[C@H]12)c1csc(N)n1`, for which the AC50 on Androgen receptor [1] was > 30 µM; in assay [2], > 300 µM; on Thromboxane A2 receptor it was > 300 µM.
Take `COC(=O)N[C@H](C(=O)N1CCC[C@H]1c1nc(-c2ccc(-c3ccc(-c4c[nH]c([C@@H]5CCCN5C(=O)[C@@H](NC(=O)OC)C(C)C)n4)cc3)cc2)c[nH]1)C(C)C`: the AC50 on Androgen receptor [1] was > 30 µM.
For the compound `CCOC(=O)[C@H](CCc1ccccc1)N[C@@H](C)C(=O)N1CCC[C@H]1C(=O)O`, the AC50 in assay [3] was > 10 µM.
Regarding `Nc1nc(N)c2nc(-c3ccccc3)c(N)nc2n1`, the AC50 on Androgen receptor [1] was > 3 µM; at Androgen receptor [4] it was > 30 µM; in assay [3], > 10 µM; at Thromboxane A2 receptor it was > 30 µM; in assay [5] it was > 30 µM; at D(1A) dopamine receptor it was > 30 µM.
For `CC(=O)c1ccc2c(c1)N(CCCN1CCN(CCO)CC1)c1ccccc1S2` [ACETOPHENAZINE], on D(1A) dopamine receptor, the AC50 stood at 0.1 µM.
`Oc1ncnc2[nH]ncc12` [ALLOPURINOL]: the AC50 (at Thromboxane A2 receptor; in assay [5]; on D(1A) dopamine receptor) was > 30 µM in each case.
Take `O=C1c2c(O)c(=O)ccn2N([C@@H]2c3ccccc3SCc3c2ccc(F)c3F)[C@@H]2COCCN12` [BALOXAVIR]: the AC50 on Androgen receptor [4] was > 30 µM.
As to `C(=N\NC1=NCCN1)/c1c2ccccc2c(/C=N/NC2=NCCN2)c2ccccc12` [BISANTRENE], the AC50 at Androgen receptor [4] is > 30 µM.
The same measure, in the same setting: then `CCO/N=C(\C(=O)N[C@@H]1C(=O)N2C(C(=O)[O-])=C(Sc3nc(-c4cc[n+](C)cc4)cs3)CS[C@H]12)c1nsc(N)n1` [CEFTAROLINE], with > 30 µM; and `COc1cc2c(cc1OC)C(=O)C(CC1CCN(Cc3ccccc3)CC1)C2` (stereo not given) [DONEPEZIL], with > 30 µM.
Turning to `COC(=O)[C@@H]1CC2=CC(=O)CC[C@]2(C)[C@@]23O[C@@H]2C[C@@]2(C)[C@@H](CC[C@@]24CCC(=O)O4)[C@H]13` [EPLERENONE], in assay [2], the AC50 was > 30 µM.
With `NC(N)=Nc1nc(CSCCC(N)=NS(N)(=O)=O)cs1` [FAMOTIDINE], in assay [3], the AC50 was > 10 µM.
`CCC(=O)c1c(O)cc(O)cc1O` [FLOPROPIONE]: the AC50 on Androgen receptor [4] was > 30 µM.
For `CC(C)C(=O)Nc1ccc([N+](=O)[O-])c(C(F)(F)F)c1` [FLUTAMIDE], the AC50 at Thromboxane A2 receptor is 6 µM; in assay [5] it was > 30 µM; on D(1A) dopamine receptor, > 30 µM.
With `COc1ccc2c(c1)C(=O)N(CCc1ccc(S(=O)(=O)NC(=O)NC3CCCCC3)cc1)C(=O)C2(C)C` [GLIQUIDONE], the AC50 on Androgen receptor [1] is > 30 µM.
Consider `NS(=O)(=O)c1cc2c(cc1Cl)NCNS2(=O)=O` [HYDROCHLOROTHIAZIDE], for which, in assay [3], the AC50 was > 10 µM.
Turning to `CC(C)Cc1ccc(CC(=O)O)cc1` [IBUFENAC], the AC50 (in assay [2]; at Thromboxane A2 receptor) was > 30 µM each time.
As for `CC(C)NNC(=O)c1ccncc1` [IPRONIAZID], the AC50 (in assay [2]; at Thromboxane A2 receptor) was > 30 µM throughout.
For the compound `CC(C(=O)O)c1ccc(N2CC=CC2)c(Cl)c1` (stereo not given) [PIRPROFEN], at Androgen receptor [4], the AC50 was > 30 µM.
As to `NC(=O)c1cnccn1` [PYRAZINAMIDE], the AC50 (at Thromboxane A2 receptor; in assay [5]; on D(1A) dopamine receptor) was > 30 µM each time.
In the case of `CC(C)OC(=O)[C@H](C)N[P@](=O)(OC[C@H]1O[C@@H](n2ccc(=O)[nH]c2=O)[C@](C)(F)[C@@H]1O)Oc1ccccc1` [SOFOSBUVIR], the AC50 at Androgen receptor [4] is > 30 µM.
For `Cc1ccc(O)c2ncccc12` [TILIQUINOL], the AC50 on Androgen receptor [4] is > 30 µM.
Same read-out and setting: next, `CC(=O)OC[C@H]1O[C@@H](n2ccc(=O)[nH]c2=O)[C@H](OC(C)=O)[C@@H]1OC(C)=O` [URIDINE TRIACETATE]: > 30 µM.
As for `CCCS(=O)(=O)Nc1ccc(F)c(C(=O)c2c[nH]c3ncc(-c4ccc(Cl)cc4)cc23)c1F` [VEMURAFENIB], at Androgen receptor [1], the AC50 is > 30 µM.
`CCOC(=O)N[C@@H]1CC[C@@H]2[C@@H](C1)C[C@H]1C(=O)O[C@H](C)[C@H]1[C@H]2/C=C/c1ccc(-c2cccc(F)c2)cn1` [VORAPAXAR]: the AC50 at Androgen receptor [4] was > 30 µM.
